We go through 2 compounds from patent publication US12521387B2, “Prophylactic or therapeutic drug for neurodegenerative diseases” (Medilabo RFP, Inc., priority 2019, dated 2026).

For data set [1], the system named is causative protein for a neurodegenerative disease. Description: Suppression of the aggregation of a causative protein for a neurodegenerative disease. As to conditions: confirmed by the present inventors.
Data set [2] relates to Tauopathy model mice (Tau784). Nature of the data set: Morris water maze behavioral test (cognitive function) in tauopathy model mice. The data set is classed as in vivo, mouse. The settings on record: Tau784 mice 14-15 mo, transnasal, every day for 1 month.
Excerpt: Tauopathy model mice (Umeda T et al., Am. J. Pathol. 183, 211-225, 2013) were provided, 14- to 15-month-old individuals of the model mice were used as subjects of administration.
Data set [3] concerns patients having mild to moderate Alzheimer's disease. The settings on record: 119 patients, 52 weeks; 500 mg, increased by 500 mg every 13 weeks to 1000 mg twice per day; cited from earlier work.
The target of another data set is T1, Aβ42 (Homo sapiens, UniProt P05067).
T1 construct: suppress the toxicity of Aβ42
Nature of the data set: Suppression of the toxicity of Aβ42. The settings on record: confirmed by the present inventors.

Data set [4] has as its system mitogen (division promoting factor)-activated protein (MAP) kinase. The settings on record: differentiated or undifferentiated human neuroblast SH-SY5Y; cited from earlier work.
In data set [5] the test system is APPOSK mice. Nature of the data set: Liver enzymes AST (GOT) and ALT (GPT) in serum (hepatic dysfunction). The settings on record: for AST level (in words): transnasal. It counts as in vivo, mouse.
Excerpt: Blood was collected from each of the mice after the completion of the behavioral test, and then serum was separated from the blood to prepare a serum sample.
A further data set has as its target T2, Aβ oligomers (Homo sapiens, UniProt P05067, DEL693-693).
T2 construct: had accumulation of amyloid-β (Aβ) protein; from tissue; host or cells: brain (hippocampus) of APPOSK transgenic mice
The data set is classed as in vivo, mouse. As to conditions: APPOSK mice, transnasal, every day for 1 month. From the text:
(§1) Each of Aβ oligomers (Aβ oligomers have been believed to cause the phosphorylation of tau and the decrease in synaptophysin), synaptophysin (a marker protein for a synapse) and phosphorylated tau was stained by an immunohistochemical staining method in accordance with the procedure described in Umeda et al. Brain 2016; 139: 1568-86. For the staining of the Aβ oligomers, 11A1 antibody (Immuno-Biological Laboratories Co, Ltd.) was used; for the staining of synaptophysin, SVP-38 antibody (Sigma) was used; and for the staining of phosphorylated tau, mouse monoclonal PHF-1 antibody (an anti-p-Ser396/404-tau antibody, provided by Peter Davies, Ph. d., Albert Einstein College of Medicine). After the staining, each of the Aβ oligomers, synaptophysin and phosphorylated tau was quantified using NIH image-J.

Data set [6] has as its system APPOSK mice. Description: Morris water maze behavioral test (spatial reference memory, cognitive function) in Alzheimer's disease model mice. The data set is classed as in vivo, mouse. The settings on record: for Cognitive function (Morris water maze): transnasal.
Excerpt: Eleven-month-old male APPOSK mice (Tomiyama et al. J Neurosci. 2010; 30: 4845-56) were provided. The body weight of each of the APPOSK mice was about 30 g. Sixty APPOSK mice were divided into five groups A to E each including 12 mice. Separately, 12 wild-type mice (non-Tg littermate) of the same month old were provided. The APPOSK mice were amyloid precursor protein (APP) transgenic mice (Alzheimer's disease models), and had accumulation of amyloid-β (Aβ) protein.
For oral administration, an oral sound for rodents was used; for transnasal administration, pipetman (white tip) was used; and for subcutaneous administration, an injection syringe was used. All of these administrations were carried out under non-anesthesia.
The behavioral test was carrying out by determining the spatial reference memory of each of the mice using a Morris water maze in accordance with the method described in Umeda et al. Brain 2016; 139: 1568-86.
Thirteen-month-age (13 mo) individuals of the APPOSK mice shown in Test Example 1 were used.
The subject of data set [7] is α-synuclein transgenic (αSyn-Tg) mice each having an A53T mutation. Nature of the data set: Morris water maze behavioral test (cognitive function) in synucleinopathy model mice. It counts as in vivo, mouse. As to conditions: αSyn-Tg 6 mo mice (DLB model); rifampicin 0.1 mg/day transnasal, every day for 1 month; listed as Reference Working Example 5. As to the method: As synucleinopathy models, α-synuclein transgenic (αSyn-Tg) mice each having an A53T mutation were purchased from Jackson Laboratories. […] Therefore, in this Test Example, αSyn-Tg 6 mo mice and αSyn-Tg 9 mo mice were used as the subjects of administration.
The motor function and the cognitive function of each of the model mice were confirmed by a motor function test and a cognitive function test as mentioned below. The motor function test was carried out using a rotarod. Each of the mice was placed on a rotor which could rotate at a speed of 5 rpm (5 rotations per minute), was then subjected to such a training that the mouse was allowed to walk on the rotor for 3 minutes, and was then placed on a rotor of which the speed of rotation could increase from 4 rpm to 40 rpm over 4 minutes, and the time (seconds) until the mouse fell off the rotor was measured (when the mouse was turned once while holding on to the rotor, it was deemed that the mouse fell off). The measurement was carried out twice per day, and an average value of the measurement values was determined. The cognitive function test was carried out in accordance with the method described in Umeda et al. Brain 2016; 139: 1568-86 by measuring the spatial reference memory of the mice using a Morris water maze (the cognitive function test in the below-mentioned examples was carried out in the same manner as in this Test Example). […]

Another data set deals with phosphorylated tau. Description: Immunohistochemical staining and quantification of phosphorylated tau in hippocampus (PHF-1 antibody). It counts as in vivo, mouse. As to conditions: APPOSK mice; rifampicin 0.05 mg/day transnasal, every day for 1 month; listed as Reference Working Example 3.
Excerpt: as §1

A further data set deals with α-synuclein (Homo sapiens, UniProt P37840). Nature of the data set: In vitro formation of oligomers of α-synuclein.
The test system of data set [8] is AD model mouse in which Aβ is accumulated. Nature of the data set: Oral administration to AD model mouse. The data set is classed as in vivo. The settings on record: orally administered.
The test system of a further data set is synaptophysin. Description: Immunohistochemical staining and quantification of synaptophysin in hippocampus (SVP-38 antibody). As to conditions: APPOSK mice; rifampicin 0.05 mg/day transnasal, every day for 1 month; listed as Reference Working Example 3. The data set is classed as in vivo, mouse.
Excerpt: as §1

A further data set deals with tau. Nature of the data set: In vitro formation of oligomers of tau.
Data set [9] has as its system FTD model mouse in which tau is accumulated. Description: Oral administration to FTD model mouse. It counts as in vivo. As to conditions: orally administered.
In a further data set the target is Aβ (Homo sapiens, UniProt P05067). Nature of the data set: In vitro formation of oligomers of Aβ.
The mark [10] stands for this setting: APPOSK mice, serum, rifampicin 0.05 mg/day transnasal, every day for 1 month, Mean ± SEM, n = 11.

“Also recorded” adds a separate entry of the source. Read-outs that look alike come from different tables or passages of the source.

With `Oc1ccc(/C=C/c2cc(O)cc(O)c2)cc1` [resveratrol, 3,5,4′-trihydroxy-trans-stilbene], the “Effect to suppress the aggregation of a causative protein for a neurodegenerative disease” value in [1] is “weak”. Besides, the “Cognitive function (Morris water maze)” value in data set [2] (resveratrol 0.02 mg/day alone, listed as Reference Example 15) is listed as “the cognitive function improving effect was developed slowly; also recorded: a slow cognitive function-improving effect on a neurodegenerative disease was observed”; in the data set on APPOSK mice [6] (APPOSK mice 13 mo, resveratrol 0.02 mg/day, every day for 1 month (Test Example 6)), “the cognitive function-improving effect was observed, although the effect was exerted slowly”; with APPOSK mice [6] (APPOSK mice 13 mo, resveratrol 0.1 mg/day, every day for 1 month (Test Example 6)) it was “the improvement of cognitive function was observed to a level close to that observed in the wild-type mice”; with APPOSK mice [6] (APPOSK mice, resveratrol 0.02 mg/day alone, every day for 1 month (Test Example 3), listed as Reference Example 10), “the cognitive function improving tendency was observed; also recorded: a slow cognitive function-improving effect on a neurodegenerative disease was observed”. Also, in data set [3], the “Effectiveness on Alzheimer's disease compared with placebo” value is reported as “the effectiveness of the administration of resveratrol could not been confirmed”. In addition, at Aβ42, the “Effect to suppress the toxicity of Aβ42” value is “significantly weaker compared with rifampicin”. The “Phosphorylation of MAP kinase” value in data set [4] was “induces the phosphorylation of mitogen (division promoting factor)-activated protein (MAP) kinase”. For the same compound, in the data set on APPOSK mice [5] (APPOSK mice (not shown), resveratrol 0.1 mg administered alone), the AST level entry was “about 86 IU/L”. Also, in the data set on APPOSK mice [5] (APPOSK mice (not shown), resveratrol 0.1 mg alone, compared with Reference Example 9 (CMC)), the “AST level / liver protection activity (in words)” value was “the AST level was decreased and a positive liver protection activity was confirmed”. In addition, the “AST level (in words)” value in the data set with APPOSK mice [5] (APPOSK mice, resveratrol 0.02 mg/day alone, every day for 1 month, compared with Reference Example 9 (CMC)) is on record as “AST was not reduced”. For the same compound, the “Removal of accumulated Aβ oligomers (immunostaining)” value on Aβ oligomers (resveratrol 0.02 mg/day alone, listed as Reference Example 10) is “the effect to remove the accumulated Aβ oligomers was observed, but the level of the effect was smaller than that in Example 1; also recorded: the accumulated Aβ oligomers removing effect was confirmed; also recorded: the significant removal of the accumulated oligomers was observed”.
On to `CO[C@H]1/C=C/O[C@@]2(C)Oc3c(C)c(O)c4c(O)c(c(/C=N/N5CCN(C)CC5)c(O)c4c3C2=O)NC(=O)/C(C)=C\C=C\[C@H](C)[C@H](O)[C@@H](C)[C@@H](O)[C@@H](C)[C@H](OC(C)=O)[C@@H]1C` [rifampicin, 3-(4-methylpiperazinyliminomethyl)rifamycin SV], for which the “Cognitive function / memory impairment (Morris water maze)” value in data set [7] was “the improvement of memory impairment was observed from day 1 after the administration; also recorded: the cognitive function was recovered to the same level as that in normal Non-Tg mice”. Also, the “Cognitive function (Morris water maze)” value in data set [2] (rifampicin 0.02 mg/day alone) is “the cognitive function improving effect was developed slowly”; with APPOSK mice [6] (APPOSK mice, rifampicin 0.02 mg/day alone, every day for 1 month) it was “the cognitive function improving tendency was observed”. In addition, in the data set with phosphorylated tau, the “Phosphorylated tau reduction in the hippocampus (immunostaining)” value is “the amount of phosphorylated tau accumulated in the brain was decreased and high”. In addition, the “Inhibition of in vitro formation of oligomers of α-synuclein” value at α-synuclein is reported as “can inhibit the in vitro formation of oligomers”. Moreover, at Aβ42, the “Effect to suppress the toxicity of Aβ42” value was “can completely suppress the toxicity of Aβ42”. The Cognitive function result in data set [8] and in data set [9] was “can recover the cognitive function of the mouse” in each case. Also, the “Synaptophysin recovery in the hippocampus (immunostaining)” value in the data set with synaptophysin was “the decreased synaptophysin was recovered; also recorded: the same level as that in the wild-type mice; also recorded: the effect was higher than that in the oral administration”. This compound registered an ALT with APPOSK mice [5] (setting [10]) of 40 ± 10 IU/L. Besides, in the data set with APPOSK mice [5] (setting [10]), the AST is 165 ± 32 IU/L. Besides, the “AST level (in words)” value in the data set on APPOSK mice [5] (APPOSK mice, rifampicin 0.02 mg/day alone, every day for 1 month, listed as Comparative Example 1) was “the increase in AST level, which indicated the occurrence of adverse side effects, was observed; also recorded: significantly reduced compared with the case of oral administration”. The “Inhibition of in vitro formation of oligomers of tau” value in the data set on tau is on record as “can inhibit the in vitro formation of oligomers”. Besides, at Aβ, the “Inhibition of in vitro formation of oligomers of Aβ” value was “can inhibit the in vitro formation of oligomers”. Further, at Aβ oligomers (rifampicin 0.02 mg/day alone), the “Removal of accumulated Aβ oligomers (immunostaining)” value is “the effect to remove the accumulated Aβ oligomers was observed, but the level of the effect was smaller than that in Example 1”. The “Improvement of memory impairment (Morris water maze)” value with APPOSK mice [6] (APPOSK mice, rifampicin 0.05 mg/day transnasal, every day for 1 month, listed as Reference Working Example 3) is “the improvement effect was at the same level as that in the wild-type mice; also recorded: the improvement effect was higher than that in the case of oral administration”.
